{"source": "ChEMBL document CHEMBL4196101", "about": "“Dual Leucine Zipper Kinase Inhibitors for the Treatment of Neurodegeneration” (J Med Chem, 2018)", "target": "Mitogen-activated protein kinase kinase kinase 12 (Homo sapiens) (UniProt Q12852)", "sequence (Q12852 whole entry, looked up)": "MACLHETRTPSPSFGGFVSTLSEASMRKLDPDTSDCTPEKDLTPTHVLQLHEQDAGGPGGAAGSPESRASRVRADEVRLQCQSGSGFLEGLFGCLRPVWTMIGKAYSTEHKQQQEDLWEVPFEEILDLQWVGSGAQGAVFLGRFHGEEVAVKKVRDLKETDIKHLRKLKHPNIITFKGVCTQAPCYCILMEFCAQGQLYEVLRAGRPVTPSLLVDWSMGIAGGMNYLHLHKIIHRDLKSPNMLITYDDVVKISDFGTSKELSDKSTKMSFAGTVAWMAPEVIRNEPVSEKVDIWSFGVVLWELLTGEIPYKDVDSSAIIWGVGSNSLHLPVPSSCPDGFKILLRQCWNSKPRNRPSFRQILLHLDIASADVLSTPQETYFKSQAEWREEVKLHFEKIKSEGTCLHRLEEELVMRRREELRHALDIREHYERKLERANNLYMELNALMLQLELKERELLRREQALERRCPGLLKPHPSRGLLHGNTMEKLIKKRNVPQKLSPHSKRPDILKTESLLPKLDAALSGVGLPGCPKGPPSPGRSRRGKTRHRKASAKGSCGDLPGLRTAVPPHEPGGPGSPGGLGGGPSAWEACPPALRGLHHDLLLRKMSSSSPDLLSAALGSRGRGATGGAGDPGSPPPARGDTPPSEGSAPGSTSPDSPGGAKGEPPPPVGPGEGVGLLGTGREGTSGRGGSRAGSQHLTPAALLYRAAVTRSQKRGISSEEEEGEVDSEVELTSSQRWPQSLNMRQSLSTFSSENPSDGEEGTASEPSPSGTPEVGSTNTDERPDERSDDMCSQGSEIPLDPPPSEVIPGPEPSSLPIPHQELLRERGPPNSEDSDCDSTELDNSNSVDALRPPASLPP", "test": "Inhibition of DLK (unknown origin) using myelin basic protein as substrate preincubated for 15 mins measured after 30 mins in presence of [gamma-32P]ATP by scintillation counting"}
{"smiles": "CCSCc1ccc2c(c1)c1c3c(c4c5cc(CSCC)ccc5n5c4c1n2[C@H]1C[C@](O)(C(=O)OC)[C@]5(C)O1)CNC3=O", "note": "[CEP-1347]", "values": [{"measurement": "IC50", "result": 114, "unit": "nM"}]}
